Measurements published in patent US5656603A (Loyola University of Chicago, priority 1995, dated 1997).
Several values for one entry are separate records, joined by “and”; a condition that tells them apart may be missing. Equal values may be shown once.

How the values were obtained:
[1] = test system: [3H]-bradykinin degradation in the isolated perfused rat lung; experiment: [3H]-bradykinin degradation in the isolated perfused rat lung (HPLC of perfusate)
Protocol: Using the procedure described herein, under Experimental Procedures it was determined that aminopeptidase P contributed to Bk degradation in the mammalian lung. In that procedure, [^3 H]-Bk (labelled in Pro^2 and Pro^3) was perfused through the isolated lung in the presence or absence of various peptidase inhibitors. The perfusate was then analyzed for radiolabelled products by HPLC. […] Most of the radioactivity (an average of 79%) was in the form of [^3 H]-Pro-Pro [Bk(2-3)] with the remainder being [^3 H]-Bk(1-5). It was hypothesized that pulmonary vascular aminopeptidase P was cleaving the Arg'-Pro^2 bond followed by rapid removal of Pro-Pro by dipeptidylpeptidase IV (DPP IV) (12). Simultaneously, angiotensin converting enzyme (ACE) was sequentially removing Phe-Arg and Ser-Pro from the C-terminus (13). […] However, most of the radioactivity remained in the Pro-Pro peak indicating substantial cleavage of Bk at the N-terminal end.
Perfusion of the Isolated Rat Lung--Male Sprague Dawley rats, weighing 300-500 grams, were anesthetized with sodium pentobarbital (50-75 mg/kg) given by intraperitoneal injection. The trachea was cannulated and the lungs ventilated with air at 70 cycles per minute (Harvard Small Animal Ventilator) at a pressure of 70 mm H2 O. The heart and lungs were exposed via midsternal incision and 1000 units of heparin were administered intracardially. Polyethylene cannulae were secured into the pulmonary artery and the left ventricle. A modified Krebs buffer (118.5 mM NaCl, 4.7 mM KCl, 1.1 mM KH2 PO4, 1.1 mM MgSO4, 2.5 mM CaCl2, 19.6 mM NaHCO3, 5.6 mM dextrose), which was kept in a 50° C. water bath and aerated with 95% O2 -5% CO2 to pH 7.35, was perfused into the pulmonary artery at 35° C. and 2.6 ml/min (LKB Microperplex peristaltic pump). The buffer was circulated through the isolated lung in situ until the effluent was free of blood. The surgical field was maintained at 37° .C with a heat lamp throughout the procedure. Experiments were conducted by introducing [^3 H]-Bk in the presence or absence of test peptidase inhibitors into the pulmonary circulation via the pulmonary artery and then collecting perfusion effluent from the left ventricular cannula. […] The lung was then perfused with 1 μCi [^3 H]-Bk in 1 ml of the inhibitor solution (giving 16 nM Bk) followed by inhibitor solution alone. Effluent was collected in tubes (0.5 min/fraction) containing 150 μl of 2% TFA. For each lung preparation, 5-6 samples were perfused over a period of about one hour. Control perfusions of [^3 H]-Bk alone were always carried out before perfusions of samples containing ramiprilat because of the slow reversibility of inhibition of ACE by this compound. […] The effects of the latter two inhibitors were reversible.
Separation and Identification of Bradykinin Metabolites--The fractions which were collected from each perfusion sample run were counted for radioactivity, and the fraction having the highest radioactive counts was prepared for HPLC by filtration through a Centricon-10 microconcentrator (Amicon). An aliquot of the filtrate containing 25000 dpm (approx. 25 μl) was spiked with a cocktail of unlabelled Bk fragments (3 μl) and then subjected to HPLC using a Waters Radial Compression Separation System with a 5μ NOVA PAK C18 Radial Pak Cartridge. The column was developed at a flow rate of 1 ml/min with a 60 min linear gradient from 100% Solvent A (0.1% TFA in water) to 75% Solvent A: 25% Solvent B (0.08% TFA in acetonitrile) using a Spectra Physics 8700XR Solvent Delivery System. The column effluent was simultaneously monitored for absorbance at 206 nm (LKB Uvicord S) and for radioactivity (Radiomatic Flo-One HS Radioactive Flow Detector using Ultima-Flo M scintillation fluid from Packard, Meriden, Conn.). […] Radioactive peaks were identified by comparison of the retention times to those of the unlabelled standards. […]

[2] = biological target: dipeptidyl-peptidase I-like activity; experiment: Specificity of apstatin: dipeptidyl-peptidase I-like activity; type: biochemical; details: detergent extract of bovine lung; Gly-Phe-β-NA, pH 6.5, HPLC-2
Protocol: Specificity of Apstatin--Apstatin was assayed for its ability to inhibit several other peptidases. […] Unless otherwise indicated, the source of each enzyme activity was a detergent extract of bovine lung prepared as described in (12-13). Activities were determined by a modification of the fluorescent assay described above (indicated by "FLUO") or by HPLC separation and quantitation of reaction products using the method described in (12) (method "HPLC-1") or the method described below (method "HPLC-2"). […]

SMILES: C[C@H](NC(=O)[C@@H]1CCCN1C(=O)[C@@H]1CCCN1C(=O)[C@@H](O)[C@H](N)Cc1ccccc1)C(N)=O [apstatin, N-[(2S, 3R)-3-amino-2-hydroxy-4-phenylbutanoyl]-L-prolyl-L-prolyl-Lalaninamide]
- percentage of radioactivity eluting from the lung as intact [3H]-Bk ([1]; apstatin 40 μM together with ramiprilat (0.5 μM), mean ± SEM, three rats): 92±4% and 92%
- percentage of radioactivity eluting from the lung as intact [3H]-Bk ([1]; apstatin alone (data not shown), difficult to quantitate accurately): 1-3%
- IC50 [2]: > 800 µM
